This passage reports IC50 results from patent publication US20260022142A1, “MACROCYCLIC IMMUNOMODULATORS” (Bristol-Myers Squibb Company, priority 2022, published 2026).

Bridge positions count the residues as written; N and C are the ends. Square brackets hold non-standard residues; d marks the D form. Peptide text beside a SMILES is read from it. * marks the point of attachment. Phe(4-CONH2) = NC(=O)c1ccc(C[C@H](N)C(=O)O)cc1; Phe(4-COOH) = N[C@@H](Cc1ccc(C(=O)O)cc1)C(=O)O; Bip = N[C@@H](Cc1ccc(-c2ccccc2)cc1)C(=O)O; Phe(3-Me) = Cc1cccc(C[C@H](N)C(=O)O)c1; Val(3-OH) = CC(C)(O)[C@H](N)C(=O)O; 4Pal = N[C@@H](Cc1ccncc1)C(=O)O; Cha = N[C@@H](CC1CCCCC1)C(=O)O; dDab = NCC[C@@H](N)C(=O)O; Carboxymethyl = O=C(O)C*; Orn = NCCC[C@H](N)C(=O)O; Aun = NCCCCCCCCCCC(=O)O; Dab = NCC[C@H](N)C(=O)O; AEEA = NCCOCCOCC(=O)O

The target of this experiment is T1, PD-1/PD-L1 interaction (PE-labeled human PD-L1-Ig binding to Jurkat cell line over-expressing human PD-1) (Homo sapiens, UniProt Q15116).
T1 construct: expressed in transfected cells; host or cells: Jurkat
T1 sequence (Q15116 25-288): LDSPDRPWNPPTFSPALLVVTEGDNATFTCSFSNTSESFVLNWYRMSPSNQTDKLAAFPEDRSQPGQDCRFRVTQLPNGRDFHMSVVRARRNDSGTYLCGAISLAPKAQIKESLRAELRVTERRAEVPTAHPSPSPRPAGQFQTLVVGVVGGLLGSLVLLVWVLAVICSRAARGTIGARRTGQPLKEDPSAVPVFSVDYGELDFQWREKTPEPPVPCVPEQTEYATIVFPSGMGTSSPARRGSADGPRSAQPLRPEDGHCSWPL
The experiment in a line: Jurkat-PD-1 Cell Binding High-Content Screening Assay (CBA). In kind it is cell-based. The settings on record: Jurkat cell line over-expressing human PD-1; PE-labeled PD-L1-Ig 20 nM final; read-out: Jurkat hPD1-PDL1 IC50. The method, boiled down:
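Binding of fluorescent PD-L1-Ig (20 nM final) to Jurkat-PD-1 cells was measured by automated imaging after 1 h, following a 2 h compound pre-treatment at 37° C.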
Consider `Cc1cccc(C[C@@H]2NC(=O)[C@H](CC(=O)O)NC(=O)[C@H](Cc3ccc(OCC(=O)O)cc3)NC(=O)[C@H](Cc3ccncc3)NC(=O)CSC[C@@H](C(=O)N[C@H](CCN)C(=O)NCCOCCOCC(=O)NCCCCCCCCCCC(=O)O)NC(=O)[C@H](CCC(=O)O)NC(=O)[C@H](C(C)(C)O)NC(=O)[C@H](CC3CCCCC3)NC(=O)[C@H](CCN)NC(=O)[C@@H](CC(C)C)NC(=O)[C@H](Cc3cnc[nH]3)NC(=O)[C@H](Cc3ccc(C(=O)O)cc3)NC(=O)[C@H](Cc3ccc(-c4ccccc4)cc3)NC(=O)[C@H](Cc3ccc(C(=O)O)cc3)NC2=O)c1` [Compound 3740] ({CH2CO}-[4Pal]Y(Carboxymethyl)D[Phe(3-Me)][Phe(4-COOH)][Bip][Phe(4-COOH)]H[dL][Dab][Cha][Val(3-OH)]EC[dDab][AEEA][Aun]-OH; thioether N-14), for which the IC50 worked out at 16.1 nM. With `Cc1cccc(C[C@@H]2NC(=O)[C@H](CC(=O)O)NC(=O)[C@H](Cc3ccc(OCC(=O)O)cc3)NC(=O)[C@H](Cc3ccncc3)NC(=O)CSC[C@@H](C(=O)N[C@@H](CCN)C(=O)NCCOCCOCC(=O)NCCOCCOCC(=O)NCCCCCCCCCCC(=O)O)NC(=O)[C@H](CCC(=O)O)NC(=O)[C@H](C(C)(C)O)NC(=O)[C@H](CC3CCCCC3)NC(=O)[C@H](CCN)NC(=O)[C@@H](CC(C)C)NC(=O)[C@H](CCCN)NC(=O)[C@H](Cc3ccc(C(=O)O)cc3)NC(=O)[C@H](Cc3ccc(-c4ccccc4)cc3)NC(=O)[C@H](Cc3ccc(C(=O)O)cc3)NC2=O)c1` [Compound 3741] ({CH2CO}-[4Pal]Y(Carboxymethyl)D[Phe(3-Me)][Phe(4-COOH)][Bip][Phe(4-COOH)][Orn][dL][Dab][Cha][Val(3-OH)]EC[Dab][AEEA][AEEA][Aun]-OH; thioether N-14), the IC50 came to 8.8 nM. Take `Cc1cccc(C[C@@H]2NC(=O)[C@H](CC(=O)O)NC(=O)[C@H](Cc3ccc(OCC(=O)O)cc3)NC(=O)[C@H](Cc3ccncc3)NC(=O)CSC[C@@H](C(=O)N[C@@H](CCN)C(=O)NCCOCCOCC(=O)NCCOCCOCC(=O)NCCCCCCCCCCC(=O)O)NC(=O)[C@H](Cc3cnc[nH]3)NC(=O)[C@H](C(C)(C)O)NC(=O)[C@H](CC3CCCCC3)NC(=O)[C@H](CCN)NC(=O)[C@@H](CC(C)C)NC(=O)[C@H](CCCN)NC(=O)[C@H](Cc3ccc(C(=O)O)cc3)NC(=O)[C@H](Cc3ccc(-c4ccccc4)cc3)NC(=O)[C@H](Cc3ccc(C(=O)O)cc3)NC2=O)c1` [Compound 3742] ({CH2CO}-[4Pal]Y(Carboxymethyl)D[Phe(3-Me)][Phe(4-COOH)][Bip][Phe(4-COOH)][Orn][dL][Dab][Cha][Val(3-OH)]HC[Dab][AEEA][AEEA][Aun]-OH; thioether N-14): the IC50 amounted to 1.7 nM. For the compound `Cc1cccc(C[C@@H]2NC(=O)[C@H](CC(=O)O)NC(=O)[C@H](Cc3ccc(C(=O)O)cc3)NC(=O)[C@H](C(C)C)NC(=O)CSC[C@@H](C(=O)N[C@@H](CCN)C(=O)NCCOCCOCC(=O)NCCCCCCCCCCC(=O)O)NC(=O)[C@H](CO)NC(=O)[C@H](C(C)(C)O)NC(=O)[C@H](CC3CCCCC3)NC(=O)[C@H](CCN)NC(=O)[C@@H](CC(C)C)NC(=O)[C@H](CCCN)NC(=O)[C@H](Cc3ccc(OCC(=O)O)cc3)NC(=O)[C@H](Cc3ccc(-c4ccccc4)cc3)NC(=O)[C@H](Cc3ccc(OCC(=O)O)cc3)NC2=O)c1` [Compound 3743] ({CH2CO}-V[Phe(4-COOH)]D[Phe(3-Me)]Y(Carboxymethyl)[Bip]Y(Carboxymethyl)[Orn][dL][Dab][Cha][Val(3-OH)]SC[Dab][AEEA][Aun]-OH; thioether N-14), the IC50 came out at 4.8 nM. As to `Cc1cccc(C[C@@H]2NC(=O)[C@H](CC(=O)O)NC(=O)[C@H](Cc3ccc(OCC(=O)O)cc3)NC(=O)[C@H](Cc3ccncc3)NC(=O)CSC[C@@H](C(=O)N[C@@H](CCN)C(=O)NCCOCCOCC(=O)NCCCCCCCCCCC(=O)O)NC(=O)[C@H](CCC(=O)O)NC(=O)[C@H](C(C)(C)O)NC(=O)[C@H](CC3CCCCC3)NC(=O)[C@H](CCN)NC(=O)[C@@H](CC(C)C)NC(=O)[C@H](CCCN)NC(=O)[C@H](Cc3ccc(C(=O)O)cc3)NC(=O)[C@H](Cc3ccc(-c4ccccc4)cc3)NC(=O)[C@H](Cc3ccc(C(=O)O)cc3)NC2=O)c1` [Compound 3744] ({CH2CO}-[4Pal]Y(Carboxymethyl)D[Phe(3-Me)][Phe(4-COOH)][Bip][Phe(4-COOH)][Orn][dL][Dab][Cha][Val(3-OH)]EC[Dab][AEEA][Aun]-OH; thioether N-14), the IC50 turned out to be 16.6 nM. For `Cc1cccc(C[C@@H]2NC(=O)[C@H](CC(=O)O)NC(=O)[C@H](Cc3ccc(OCC(=O)O)cc3)NC(=O)[C@H](Cc3ccncc3)NC(=O)CSC[C@@H](C(=O)N[C@@H](CCN)C(=O)NCCOCCOCC(=O)NCCCCCCCCCCC(=O)O)NC(=O)[C@H](CCC(=O)O)NC(=O)[C@H](C(C)(C)O)NC(=O)[C@H](CC3CCCCC3)NC(=O)[C@H](CCN)NC(=O)[C@@H](CC(C)C)NC(=O)[C@H](CCC(N)=O)NC(=O)[C@H](Cc3ccc(OCC(=O)O)cc3)NC(=O)[C@H](Cc3ccc(-c4ccccc4)cc3)NC(=O)[C@H](Cc3ccc(OCC(=O)O)cc3)NC2=O)c1` [Compound 3746] ({CH2CO}-[4Pal]Y(Carboxymethyl)D[Phe(3-Me)]Y(Carboxymethyl)[Bip]Y(Carboxymethyl)Q[dL][Dab][Cha][Val(3-OH)]EC[Dab][AEEA][Aun]-OH; thioether N-14), the IC50 amounted to 6.8 nM. On to `Cc1cccc(C[C@@H]2NC(=O)[C@H](CC(=O)O)NC(=O)[C@H](Cc3ccc(OCC(=O)O)cc3)NC(=O)[C@H](Cc3ccncc3)NC(=O)CSC[C@@H](C(=O)N[C@@H](CCN)C(=O)NCCOCCOCC(=O)NCCCCCCCCCCC(=O)O)NC(=O)[C@H](CO)NC(=O)[C@H](C(C)(C)O)NC(=O)[C@H](CC3CCCCC3)NC(=O)[C@H](CCN)NC(=O)[C@@H](CC(C)C)NC(=O)[C@H](CCC(N)=O)NC(=O)[C@H](Cc3ccc(C(=O)O)cc3)NC(=O)[C@H](Cc3ccc(-c4ccccc4)cc3)NC(=O)[C@H](Cc3ccc(C(=O)O)cc3)NC2=O)c1` [Compound 3747] ({CH2CO}-[4Pal]Y(Carboxymethyl)D[Phe(3-Me)][Phe(4-COOH)][Bip][Phe(4-COOH)]Q[dL][Dab][Cha][Val(3-OH)]SC[Dab][AEEA][Aun]-OH; thioether N-14), for which the IC50 was found to be 12.1 nM. On to `Cc1cccc(C[C@@H]2NC(=O)[C@H](CC(=O)O)NC(=O)[C@H](Cc3ccc(OCC(=O)O)cc3)NC(=O)[C@H](Cc3ccncc3)NC(=O)CSC[C@@H](C(=O)N[C@@H](CCN)C(=O)NCCOCCOCC(=O)NCCCCCCCCCCC(=O)O)NC(=O)[C@H](CCC(=O)O)NC(=O)[C@H](C(C)(C)O)NC(=O)[C@H](CC3CCCCC3)NC(=O)[C@H](CCN)NC(=O)[C@@H](CC(C)C)NC(=O)[C@H](CCC(N)=O)NC(=O)[C@H](Cc3ccc(C(=O)O)cc3)NC(=O)[C@H](Cc3ccc(-c4ccccc4)cc3)NC(=O)[C@H](Cc3ccc(C(=O)O)cc3)NC2=O)c1` [Compound 3748] ({CH2CO}-[4Pal]Y(Carboxymethyl)D[Phe(3-Me)][Phe(4-COOH)][Bip][Phe(4-COOH)]Q[dL][Dab][Cha][Val(3-OH)]EC[Dab][AEEA][Aun]-OH; thioether N-14), for which the half-inhibitory concentration (IC50) came out at 10.5 nM. For the compound `Cc1cccc(C[C@@H]2NC(=O)[C@H](CC(=O)O)NC(=O)[C@H](Cc3ccc(C(=O)O)cc3)NC(=O)[C@H](Cc3ccncc3)NC(=O)CSC[C@@H](C(=O)N[C@@H](CCN)C(=O)NCCOCCOCC(=O)NCCCCCCCCCCC(=O)O)NC(=O)[C@H](CO)NC(=O)[C@H](C(C)(C)O)NC(=O)[C@H](CC3CCCCC3)NC(=O)[C@H](Cc3cnc[nH]3)NC(=O)[C@@H](CC(C)C)NC(=O)[C@H](CCC(N)=O)NC(=O)[C@H](Cc3ccc(OCC(=O)O)cc3)NC(=O)[C@H](Cc3ccc(-c4ccccc4)cc3)NC(=O)[C@H](Cc3ccc(OCC(=O)O)cc3)NC2=O)c1` [Compound 3749] ({CH2CO}-[4Pal][Phe(4-COOH)]D[Phe(3-Me)]Y(Carboxymethyl)[Bip]Y(Carboxymethyl)Q[dL]H[Cha][Val(3-OH)]SC[Dab][AEEA][Aun]-OH; thioether N-14), the IC50 amounted to 56.6 nM.

In the case of `Cc1cccc(C[C@@H]2NC(=O)[C@H](CC(=O)O)NC(=O)[C@H](Cc3ccc(C(N)=O)cc3)NC(=O)[C@H](Cc3ccncc3)NC(=O)CSC[C@@H](C(=O)N[C@@H](CCN)C(=O)NCCOCCOCC(=O)NCCCCCCCCCCC(=O)O)NC(=O)[C@H](CO)NC(=O)[C@H](C(C)(C)O)NC(=O)[C@H](CC3CCCCC3)NC(=O)[C@H](CCN)NC(=O)[C@@H](CC(C)C)NC(=O)[C@H](CCCN)NC(=O)[C@H](Cc3ccc(OCC(=O)O)cc3)NC(=O)[C@H](Cc3ccc(-c4ccccc4)cc3)NC(=O)[C@H](Cc3ccc(OCC(=O)O)cc3)NC2=O)c1` [Compound 3750] ({CH2CO}-[4Pal][Phe(4-CONH2)]D[Phe(3-Me)]Y(Carboxymethyl)[Bip]Y(Carboxymethyl)[Orn][dL][Dab][Cha][Val(3-OH)]SC[Dab][AEEA][Aun]-OH; thioether N-14), the IC50 stood at 125 nM. Consider `Cc1cccc(C[C@@H]2NC(=O)[C@H](CC(=O)O)NC(=O)[C@H](Cc3ccc(OCC(=O)O)cc3)NC(=O)[C@H](CCN)NC(=O)CSC[C@@H](C(=O)N[C@@H](CCN)C(=O)NCCOCCOCC(=O)NCCOCCOCC(=O)NCCCCCCCCCCC(=O)O)NC(=O)[C@H](CCC(=O)O)NC(=O)[C@H](C(C)(C)O)NC(=O)[C@H](CC3CCCCC3)NC(=O)[C@H](CCN)NC(=O)[C@@H](CC(C)C)NC(=O)[C@H](CCCN)NC(=O)[C@H](Cc3ccc(OCC(=O)O)cc3)NC(=O)[C@H](Cc3ccc(-c4ccccc4)cc3)NC(=O)[C@H](Cc3ccc(OCC(=O)O)cc3)NC2=O)c1` [Compound 3753] ({CH2CO}-[Dab]Y(Carboxymethyl)D[Phe(3-Me)]Y(Carboxymethyl)[Bip]Y(Carboxymethyl)[Orn][dL][Dab][Cha][Val(3-OH)]EC[Dab][AEEA][AEEA][Aun]-OH; thioether N-14), for which the IC50 came out at 6 nM.

The IC50 is the concentration needed to halve the response being measured.
